Results taken from patent US9309225B2, “N-((1-benzyl-1H-1,2,3-triazol-4-yl)methyl)arylamide compounds as potential anticancer agents and a process for the preparation thereof” (COUNCIL OF SCIENTIFIC & INDUSTRIAL RESEARCH, priority 2013, dated 2016).

Columns and labels:
Format in all cases: cell-based
HS 578T = test: NCI sixty human tumor cell line screen, Breast panel; conditions: NCI protocol
Protocol: (§1) The in vitro anticancer activity studies for these N-((1-benzyl-1H-1,2,3-triazol-4-yl)methyl) arylamide analogues were carried out at the National Cancer Institute, USA.
(§2) The N-((1-benzyl-1H-1,2,3-triazol-4-yl)methyl)arylamide analogues have been tested at NCI, USA, against sixty human tumor cell lines derived from nine cancer types (leukemia, non-small cell lung cancer, colon cancer, CNS cancer, melanoma cancer, ovarian cancer, renal cancer, prostate cancer and breast cancer). For these compounds results are expressed as growth inhibition (GI50) values as per NCI protocol.

A549 = test: IC50 of compounds and E7010 against A549 cell line
Text: (§3) In the present investigation, an attempt has been made, in view of the biological importance of both 2-anilino nicotinyl structure and 1,2,3-triazoles group. […] Introduction of triazole group on 2-anilino nicotinyl moiety resulted that there is enhancement of biological activity of representative compounds (1a, 1b, 1c, 1d, 1f, 1g, 1i, 1k, 6b and 6g) compare with E7010. Biological data of representative compounds has been provided in Table 1. • (Novel sulfonamides as potential, systemically active antitumor agents. Yoshino, H.; Ueda, N.; Niijima, J.; Sugumi, H.; Kotake, Y.; Koyanagi, N.; Yoshimatsu, K.; Asada, M.; Watanabe, T.; Nagasu, T. J. Med. Chem. 1992, 35, 2496-2497)

RPMI-8226 = test: NCI sixty human tumor cell line screen, Leukemia panel; conditions: RPMI-8226, Leukemia, NCI protocol
Protocol: as §1, §2

MOLT-4 = test: as above; conditions: MOLT-4, Leukemia, NCI protocol
Protocol: as §1, §2

SR = test: as above; conditions: NCI protocol
Protocol: as §1, §2

K-562 = test: as above; conditions: K562, K-562, Leukemia, NCI protocol
Protocol: as §1, §2

CCRF-CEM = test: as above; conditions: NCI protocol
Protocol: as §1, §2

HL-60(TB) = test: as above; conditions: NCI protocol
Protocol: as §1, §2

HCT-15 = test: NCI sixty human tumor cell line screen, Colon panel; conditions: HCT-15, Colon, NCI protocol
Protocol: as §1, §2

HCC-2998 = test: as above; conditions: HCC-2998, Colon, NCI protocol
Protocol: as §1, §2

IGROV1 = test: NCI sixty human tumor cell line screen, Ovarian panel; conditions: IGROV-1, NCI protocol
Protocol: as §1, §2

NCI-H23 = test: NCI sixty human tumor cell line screen, Non-small-cell-lung panel; conditions: NCI protocol
Protocol: as §1, §2

UACC-257 = test: NCI sixty human tumor cell line screen, Melanoma panel; conditions: UACC-257, Melanoma, NCI protocol
Protocol: as §1, §2

OVCAR-5 = test: NCI sixty human tumor cell line screen, Ovarian panel; conditions: OVCAR-5, Ovarian, NCI protocol
Protocol: as §1, §2

HOP-92 = test: NCI sixty human tumor cell line screen, Non-small-cell-lung panel; conditions: HOP-92, Non-small-cell-lung, NCI protocol
Protocol: as §1, §2

NCI-H322M = test: as above; conditions: NCI protocol
Protocol: as §1, §2

MALME-3M = test: NCI sixty human tumor cell line screen, Melanoma panel; conditions: NCI protocol
Protocol: as §1, §2

MCF7 = test: NCI sixty human tumor cell line screen, Breast panel; conditions: NCI protocol
Protocol: as §1, §2

MCF-7 = test: IC50 of compounds and E7010 against MCF-7 cell line
Text: as §3

[1] = Homo sapiens, A549, A549 cell line
[2] = Homo sapiens, MCF7, MCF-7 cell line

Row | Compound | GI50 (HS 578T) [µM] | IC50 (A549; A549 cell line) [µM] | IC50 (A549; [1]) [µM] | GI50 (RPMI-8226) [µM] | GI50 (MOLT-4) [µM] | GI50 (SR) [µM] | GI50 (K-562) [µM] | GI50 (CCRF-CEM) [µM] | GI50 (HL-60(TB)) [µM] | GI50 (HCT-15) [µM] | GI50 (HCC-2998) [µM] | GI50 (IGROV1) [µM] | GI50 (NCI-H23) [µM] | GI50 (UACC-257) [µM] | GI50 (OVCAR-5) [µM] | GI50 (HOP-92) [µM] | GI50 (NCI-H322M) [µM] | GI50 (MALME-3M) [µM] | GI50 (MCF7) [µM] | IC50 (MCF-7; [2]) [µM] | further results
1 | O=C(NCc1cn(Cc2cccc(Oc3ccccc3)c2)nn1)c1cccnc1Nc1ccccc1 [Compound 1a, N-((1-(3-Phenoxybenzyl)-1H-1,2,3-triazol-4-yl)methyl)-2-(phenylamino)nicotinamide] | 30.9 | 1.54 | 1.25 to 3.98 | 3.61 | 3.74 | 2.56 | 3.69 | 3.34 | 3.74 | 3.81 | 3.7 | 30.7 | 3.73 | 1.42 | – | – | – | – | – | – | –
2 | O=C(NCc1cn(Cc2cccc(Oc3ccccc3)c2)nn1)c1cccnc1Nc1ccc(F)cc1 [Compound 1b, 2-(4-Fluorophenylamino)-N-((1-(3-phenoxybenzyl)-1H-1,2,3-triazol4-yl)methyl)nicotinamide] | 5.9 | 1.69 | 1.25 to 3.98 | – | – | – | – | – | – | – | – | 5.89 | 29.9 | 6.87 | 4.23 | 10.7 | 5.29 | 15.1 | – | – | –
3 | COc1ccc(Nc2ncccc2C(=O)NCc2cn(Cc3cccc(Oc4ccccc4)c3)nn2)cc1 [Compound 1e, 2-(4-Methoxyphenylamino)-N-((1-(3-phenoxybenzyl)-1H-1,2,3-triazol-4-yl)methyl) nicotinamide] | – | – | – | 4.84 | 2.91 | – | 3.48 | 3.8 | 2.66 | 3.93 | 2.53 | – | 3.45 | 4.82 | ≥ 100 | 5.67 | 5.24 | 3.8 | – | – | –
4 | COc1ccc(Nc2ncccc2C(=O)NCc2cn(Cc3cccc(Oc4ccccc4)c3)nn2)c(OC)c1 [Compound 1g, 2-(2,4-Dimethoxyphenylamino)-N-((1-(3-phenoxybenzyl)-1H-1,2,3-triazol-4-yl)methyl) nicotinamide] | 2.94 | 1.57 | 1.25 to 3.98 | 3.03 | 3.65 | – | 0.75 | 1.2 | 2.21 | 2.89 | 3.33 | 5.96 | 2.24 | – | 8.34 | – | – | 4.07 | 0.65 | 0.74 to 2.51 | IC50 (MCF-7; MCF-7 cell line): 0.74 µM
5 | COc1cc(Nc2ncccc2C(=O)NCc2cn(Cc3cccc(Oc4ccccc4)c3)nn2)cc(OC)c1 [Compound 1i, 2-(3,5-Dimethoxyphenylamino)-N-((1-(3-phenoxybenzyl)-1H-1,2,3-triazol-4-yl)methyl) nicotinamide] | – | 1.93 | 1.25 to 3.98 | 5.25 | 4.85 | – | 5.05 | 4.19 | 3.97 | 3.89 | 9.6 | – | 6.22 | 4.86 | ≥ 100 | 4.67 | 6.15 | 5.81 | – | 0.74 to 2.51 | IC50 (MCF-7; MCF-7 cell line): 0.93 µM
6 | O=C(NCc1cn(Cc2cccc(Oc3ccccc3)c2)nn1)c1cccnc1NCc1ccc(Cl)cc1 [Compound 1k, 2-(4-Chlorobenzylamino)-N-((1-(3-phenoxybenzyl)-1H-1,2,3-triazol-4-yl)methyl) nicotinamide] | 2.72 | 1.79 | 1.25 to 3.98 | 3.12 | 3.28 | 3.31 | 3.24 | 3.05 | 3.39 | 3.39 | 4.17 | 9.03 | – | 3.83 | 5.62 | 4.23 | – | 5.69 | 2.99 | – | –
